Results taken from US20100261749A1, “METHOD OF PREVENTING OR AMELIORATING PSORIASIS USING PYRROLOQUINOLINE QUINONE COMPOUNDS” (KYOWA HAKKO BIO CO., LTD., priority 2007, published 2010).

Assays:
mast cells in dermis = assay: Number of mast cells in dermis, May-Grunwald-Giemsa staining; assay type: in vivo, mice
Method: (§1) For testing, HOS: HR-1 mice (female, 4 weeks old, purchased from Hoshino Laboratory Animmals, Inc.) were used. Mice were raised under conditions of a room temperature of 22±3° C. and a humidity of 50±25% while being fed with feed and water ad libitum.
(§2) Each test group consisted of 8 mice. The mice of the 1st group were fed with a commercially available powder feed product “CE-2.” The mice of the 2nd group were fed with a specialty feed product (produced by Nosan Corporation). The mice of the 3rd group were fed with a specialty feed product containing 0.0089% by weight of pyrroloquinoline quinone disodium salt (hereinafter referred to as PQQ disodium salt, produced by Mitsubishi Gas Chemical Company, Inc.). In addition, it has been known that HOS: HR-1 mice develop dry skin after being fed with the above specialty feed product (The Journal of international medical research pharmacology, 32, 392-399 (2004)).
The number of mast cells in dermis was determined with the use of May-Grunwald-Giemsa staining specimens. The counting area was the dermis located above the cutaneous muscle. The number of cells in the dermis (per 1 mm of the baseline) was obtained by dividing the determined cell number by the length of a straight line extending between both ends of the cutaneous muscle (baseline). […]

HOS: HR-1 mice [1] = assay: Skin moisture content (conductance) in dry skin mouse models, SKICON-200; assay type: in vivo; conditions: for Conductance (skin moisture content): specialty feed containing 0.0089% by weight PQQ disodium salt, group average
Method: as §1, §2
In addition, the skin moisture content (conductance) was determined with SKICON-200 (produced by IBS) and the average value for each group was calculated. Table 2 lists results of determination of the skin moisture content from week 0 to week 6 after the initiation of the test.

HOS: HR-1 mice [2] = assay: Transepidermal water loss (TEWL) in dry skin mouse models, Tewameter TM210; assay type: in vivo; conditions: for TEWL value: specialty feed containing 0.0089% by weight PQQ disodium salt, right buttock, group average
Method: as §1, §2
Upon the initiation of feeding with each feed product and 2, 4, and 6 weeks later, the transepidermal water loss (TEWL) of the right buttock of each mouse was determined with the use of a Tewameter TM210 (Courage+Khazaka electronic GmbH, Germany) and the average value for each group was calculated.

[3] = test system: CD3-positive T lymphocytes in the epidermis; assay: Number of CD3-positive T lymphocytes in epidermis, anti-CD3 immunostaining; assay type: in vivo, mice
Method: as §1, §2
In addition, counting of the number of CD3-positive T lymphocytes in the epidermis was carried out with the use of anti-CD3 immunostained specimens. The counting area was the dermis located above the cutaneous muscle. The number of cells in the epidermis (per mm of the baseline) was obtained by dividing the determined cell number by the length of a straight line extending between both ends of the cutaneous muscle (baseline). […]

HOS: HR-1 mice [4] = assay: Epidermis thickness, paraffin sections of mouse dorsal skin; assay type: in vivo
Method: as §1, §2
Paraffin sections of mouse dorsal skin fixed with neutral buffer containing 10 vol % formalin were prepared for the determination of epidermis thickness. Table 3 lists results of the determination of epidermis thickness 6 weeks after the initiation of the test.

[5] = 3rd group versus 2nd group, 6 weeks
[6] = 6 weeks after initiation, specialty feed containing 0.0089% by weight PQQ disodium salt, *p < 0.05 for the 2nd group
[7] = 3rd group versus 2nd group (specialty feed without PQQ disodium salt)
[8] = feeding period 0 weeks (initiation)

O=C(O)c1cc(C(=O)O)c2c(n1)C(=O)C(=O)c1cc(C(=O)O)[nH]c1-2.[Na].[Na] [PQQ disodium salt, pyrroloquinoline quinone disodium salt]
Number of mast cells in the dermis, result in words (mast cells in dermis; [5]): the number of mast cells in the dermis was suppressed | Number of mast cells in dermis per mm basal line (mast cells in dermis; [6]): 54.62* cells/mm basal line | Skin moisture content (conductance), result in words (HOS: HR-1 mice [1]; [7]): increased to a greater extent than that in the 2nd group | Conductance (skin moisture content) (HOS: HR-1 mice [1]; [8]): 414.55 μS | Conductance (skin moisture content) (HOS: HR-1 mice [1]; feeding period 2 weeks): 67.83 μS | Conductance (skin moisture content) (HOS: HR-1 mice [1]; feeding period 4 weeks): 41.95 μS | Conductance (skin moisture content) (HOS: HR-1 mice [1]; feeding period 6 weeks): 39.03 μS | Transepidermal water loss value (TEWL value), result in words (HOS: HR-1 mice [2]; [7]): suppressed to a level lower than that in the 2nd group | TEWL value (HOS: HR-1 mice [2]; [8]): 4.94 g/m²/h | TEWL value (HOS: HR-1 mice [2]; feeding period 2 weeks): 17.9 g/m²/h | TEWL value (HOS: HR-1 mice [2]; feeding period 4 weeks): 27 g/m²/h | TEWL value (HOS: HR-1 mice [2]; feeding period 6 weeks): 29.9 g/m²/h | Number of CD3-positive cells in the epidermis, result in words [3, 5]: the number of CD3-positive cells in the epidermis was suppressed | Number of CD3-positive cells in epidermis per mm basal line [3, 6]: 18.95* cells/mm basal line | Epidermis thickening, result in words (HOS: HR-1 mice [4]; [5]): epidermis thickening was suppressed | Epidermis thickness (HOS: HR-1 mice [4]; 6 weeks after initiation, dorsal skin, specialty feed containing 0.0089% by weight PQQ disodium salt): 64.03 μm
